The values below come from patent US20010031768A1, “Triazole antifungal agent” (SANKYO COMPANY LIMITED, priority 1995, published 2001).

The structures appear in SMILES notation. Read-outs that look alike come from different tables or passages of the source.

This test deals with Candida albicans. The test can be described thus: Survival of mice infected with Candida albicans after oral administration. The format is in vivo. The following applies: for responders at 20 mg/kg: po. As for the experimental part:
To mice (one group consisting of 10 mice), which were innoculated with 4 to 9×10^6 Candida albicans, were administered orally 20 mg/kg of preparations after 1, 4 and 24 hours, and thereafter the survival rate until 21 days after infection was examined.

[1] abbreviates: 336 h, mice inoculated with 4 to 9×10^6 Candida albicans, 20 mg/kg orally after 1, 4 and 24 hours, 14 days after infection, read-out: Survival rate % 14 days.
The mark [2] stands for this setting: 504 h, mice inoculated with 4 to 9×10^6 Candida albicans, 20 mg/kg orally after 1, 4 and 24 hours, 21 days after infection, read-out: Survival rate % 21 days.

In the case of `CC(C)(SC1COC(/C=C/c2ccc(C(F)(F)F)cc2)OC1)C(O)(Cn1cncn1)c1ccc(C(F)(F)F)cc1` (racemic) [Example 30, (RS)-3-Methyl-1-(1 H-1,2,4-triazol-1-yl)-2-[4-(trifluoromethyl)phenyl]-3-[[trans-2-[(E)-2-[4-(trifluoromethyl)phenyl]vinyl]-1,3-dioxan-5-yl]thio]-2-butanol], the responders at 20 mg/kg reads like this: under setting [1], 100%; under setting [2], 100%.

Regarding `C[C@@H](S[C@H]1CO[C@H](/C=C/c2ccc(C(F)(F)F)cc2)OC1)[C@](O)(Cn1cncn1)c1ccc(F)cc1F` [Example 2, (2R,3R)-2-(2,4-Difluorophenyl)-3-[[trans-2-[(E)-2-[4-(trifluoromethyl)phenyl]vinyl]-1,3-dioxan-5-yl]thio]-1-(1 H-1,2,4-triazol-1-yl)-2-butanol], the responders at 20 mg/kg was found to be 100% under setting [1] and 100% under setting [2].

In the case of `C[C@@H](S[C@H]1CO[C@H](/C=C/c2ccc(OC(F)(F)F)cc2)OC1)[C@](O)(Cn1cncn1)c1ccc(F)cc1F` [Example 11, (2R,3R)-2-(2,4-Difluorophenyl)-1-(1 H-1,2,4-triazol-1-yl)-3-[[trans-2-[(E)-2-[4-(trifluoromethoxy)phenyl]vinyl]-1,3-dioxan-5-yl]thio]-2-butanol], the responders at 20 mg/kg under setting [1] is 100% and the responders at 20 mg/kg under setting [2] came to 100%.

Consider `C[C@@H](S[C@H]1CO[C@H](/C=C/C=C/c2ccc(C(F)(F)F)cc2)OC1)[C@](O)(Cn1cncn1)c1ccc(F)cc1F` [Example 15, (2R,3R)-2-(2,4-Difluorophenyl)-1-(1 H-1,2,4-triazol-1-yl) -3-[[trans-2-[(1 E,3 E)-4-[4-(trifluoromethyl)phenyl]-1,3-butadien-1-yl]-1,3-dioxan-5-yl]thio]-2-butanol], for which the responders at 20 mg/kg under setting [1] amounted to 100% and the responders at 20 mg/kg under setting [2] was 100%.

As for `C[C@@H](S[C@H]1CO[C@H](/C=C/C=C/c2ccc(OCC(F)(F)C(F)F)cc2)OC1)[C@](O)(Cn1cncn1)c1ccc(F)cc1F` [Example 16, (2R,3R)-2-(2,4-Difluorophenyl)-3-[[trans-2-[(1 E,3 E)-4-[4-(2,2,3,3-tetrafluoropropoxy)phenyl]-1,3-butadien-1-yl]-1,3-dioxan-5-yl]thio]-1-(1 H-1,2,4-triazol-1-yl)-2-butanol], the responders at 20 mg/kg by setting is: under setting [1], 100%; under setting [2], 100%.

For `C[C@@H](S[C@H]1CO[C@H](/C=C/C=C(/c2ccc(Cl)cc2)C(F)(F)F)OC1)[C@](O)(Cn1cncn1)c1ccc(F)cc1F` [Example 18, (2R,3R) -2-(2,4-Difluorophenyl)-3-[[trans-2-[(1 E,3 Z)-4-(4-chlorophenyl)-5,5,5-trifluoro-1,3-pentadien-1-yl]-1,3-dioxan-5-yl]thio]-1-(1 H-1,2,4-triazol-1-yl)-2-butanol], the responders at 20 mg/kg under setting [1] is 100% and the responders at 20 mg/kg under setting [2] was 100%.

As for `C[C@@H](SC1CCN(C(=O)/C=C/c2ccc(OC(F)(F)F)cc2)CC1)[C@](O)(Cn1cncn1)c1ccc(F)cc1F` [Example 21, (2R,3R)-2-(2,4-Difluorophenyl) -3-[[1-[(E)-4-(trifluoromethoxy)cinaamoyl]piperidin-4-yl]thio]-1-(1 H-1,2,4-triazol-1-yl)-2-butanol], the “Survival rate % 14 days” value (mice inoculated with 4 to 9×10^6 Candida albicans, 20 mg/kg orally after 1, 4 and 24 hours, 14 days after infection) is recorded as 100%. Also, for the setting “mice inoculated with 4 to 9×10^6 Candida albicans, 20 mg/kg orally after 1, 4 and 24 hours, 21 days after infection”, the “Survival rate % 21 days” value came out at 60%.

Regarding `C[C@@H](S[C@H]1CO[C@H](/C=C/C=C/c2ccc(SC(F)(F)F)cc2)OC1)[C@](O)(Cn1cncn1)c1ccc(F)cc1F` [Example 32, (2R,3R)-2-(2,4-Difluorophenyl)-1-(1 H-1,2,4-triazol-1-yl)-3-[[trans-2-[(1E, 3E) -4-[4-(trifluoromethylthio)phenyl]-1,3-butadien-1-yl]-1,3-dioxan-5-yl]thio]-2-butanol], the responders at 20 mg/kg came out at 100% under setting [1] and 100% under setting [2].

For `C[C@@H](S[C@H]1CO[C@H](/C=C/C=C/c2ccc([S+]([O-])C(F)(F)F)cc2)OC1)[C@](O)(Cn1cncn1)c1ccc(F)cc1F` (stereo partly drawn) [Example 35, (2R,3R)-2-(2,4-Difluorophenyl)-1-(1 H-1,2,4-triazol-1-yl)-3-[[trans-2-[(1E,3E)-4-[4-(trifluoromethylsulfinyl)phenyl]-1,3-butadien-1-yl]-1,3-dioxan-5-yl]thio]-2-butanol], the responders at 20 mg/kg worked out at 100% under setting [1] and 100% under setting [2].

Regarding `CC(SC1COC(/C=C/C=C/C=C/c2ccc(C(F)(F)F)cc2)OC1)C(O)(Cn1cncn1)c1ccc(F)cc1F` [Example 37, (2R,3R)-2-(2,4-Difluorophenyl)-1-(1 H-1,2,4-triazol-1-yl)-3-[[trans-2-[(1E,3E,5E)-6-[4-(trifluoromethyl)phenyl]-1,3,5-hexatrien-1-yl]-1,3-dioxam-5-yl]thio]-2-butanol], the responders at 20 mg/kg reads like this: under setting [1], 100%; under setting [2], 100%.

In the case of `OC(Cn1cncn1)(Cn1cncn1)c1ccc(F)cc1F` [Fluconazol, reference compound], the responders at 20 mg/kg was found to be 70% (Candida albicans, 336 h, read-out: Survival rate % 14 days) and 60% (Candida albicans, 504 h, read-out: Survival rate % 21 days).
